pIC50: −log10 of the molar value. The source made the active and inactive calls. The rule behind the calls is not given here.
Legend:
[1] = Antitumor activity against human COV504 cells assessed as cell growth inhibition treated for 10 to 15 days; assay type: functional; conditions: time 10-15 day
[2] = Antitumor activity against human MJ cells assessed as cell growth inhibition treated for 10 to 15 days; assay type: functional; conditions: time 10-15 day
[3] = Antitumor activity against human COV362 cells assessed as cell growth inhibition treated for 10 to 15 days; assay type: functional; conditions: time 10-15 day
[4] = Antitumor activity against human CMK-86 cells assessed as cell growth inhibition treated for 10 to 15 days; assay type: functional; conditions: time 10-15 day
NCI-H661 = assay: Antitumor activity against human NCI-H661 cells assessed as cell growth inhibition treated for 10 to 15 days; assay type: functional; conditions: time 10-15 day
[5] = target: Serine/threonine-protein kinase D2 (Homo sapiens) (UniProt Q9BZL6); assay: Inhibition of N-terminal GST-fused full length human PKD2 (1 to 878 residues) expressed in baculovirus expression system using GS peptide as substrate at 1 uM in presence of ATP by Mobility shift assay
NCI-H522 = assay: Antitumor activity against human NCI-H522 cells assessed as cell growth inhibition treated for 10 to 15 days; assay type: functional; conditions: time 10-15 day
KARPAS-422 = assay: Antitumor activity against human KARPAS-422 cells assessed as cell growth inhibition treated for 10 to 15 days; assay type: functional; conditions: time 10-15 day
LOUCY = assay: Antitumor activity against human LOUCY cells assessed as cell growth inhibition treated for 10 to 15 days; assay type: functional; conditions: time 10-15 day
DU-145 = assay: Antitumor activity against human DU-145 cells assessed as cell growth inhibition treated for 10 to 15 days; assay type: functional; conditions: time 10-15 day
Granta-519 = assay: Antitumor activity against human Granta-519 cells assessed as cell growth inhibition treated for 10 to 15 days; assay type: functional; conditions: time 10-15 day
ARH-77 = assay: Antitumor activity against human ARH-77 cells assessed as cell growth inhibition treated for 10 to 15 days; assay type: functional; conditions: time 10-15 day
[6] = Antitumor activity against human HUG1N cells assessed as cell growth inhibition treated for 10 to 15 days; assay type: functional; conditions: time 10-15 day
NCI-H520 = assay: Antitumor activity against human NCI-H520 cells assessed as cell growth inhibition treated for 10 to 15 days; assay type: functional; conditions: time 10-15 day
OAW-42 = assay: Antitumor activity against human OAW-42 cells assessed as cell growth inhibition treated for 10 to 15 days; assay type: functional; conditions: time 10-15 day
HCT-116 = assay: Antitumor activity against human HCT-116 cells assessed as cell growth inhibition treated for 10 to 15 days; assay type: functional; conditions: time 10-15 day
[7] = target: DNA (cytosine-5)-methyltransferase 3A (Homo sapiens, UniProt Q9Y6K1); assay: Inhibition of human DNMT3a using lambda DNA and [3H]SAM as substrate incubated for 30 mins to 1 hr by HotSpot kinase assay
MLMA = assay: Antitumor activity against human MLMA cells assessed as cell growth inhibition treated for 10 to 15 days; assay type: functional; conditions: time 10-15 day
[8] = target: Serine/threonine-protein kinase Sgk2 (Homo sapiens) (UniProt Q9HBY8); assay: Inhibition of N-terminal GST-fused full length human SGK2 (1 to 367 residues) expressed in baculovirus expression system using SGKtide as substrate at 1 uM in presence of ATP by Mobility shift assay
MV4-11 = assay: Antitumor activity against human MV4-11 cells assessed as cell growth inhibition treated for 10 to 15 days; assay type: functional; conditions: time 10-15 day
ZR-75-30 = assay: Antitumor activity against human ZR-75-30 cells assessed as cell growth inhibition treated for 10 to 15 days; assay type: functional; conditions: time 10-15 day
[9] = target: Histone-lysine N-methyltransferase SETD1B (Homo sapiens, UniProt Q9UPS6); assay: Inhibition of human SET1B using Core Histone and [3H]SAM as substrate incubated for 30 mins to 1 hr by HotSpot kinase assay
[10] = target: Histone-lysine N-methyltransferase EHMT1 (Homo sapiens, UniProt Q9H9B1); assay: Inhibition of human GLP using Histone H3 (1-21 residues) and [3H]SAM as substrate incubated for 30 mins to 1 hr by HotSpot kinase assay
Daudi = assay: Antitumor activity against human Daudi cells assessed as cell growth inhibition treated for 10 to 15 days; assay type: functional; conditions: time 10-15 day
[11] = Antitumor activity against human OV7 cells assessed as cell growth inhibition treated for 10 to 15 days; assay type: functional; conditions: time 10-15 day
HPAC = assay: Antitumor activity against human HPAC cells assessed as cell growth inhibition treated for 10 to 15 days; assay type: functional; conditions: time 10-15 day
Toledo = assay: Antitumor activity against human Toledo cells assessed as cell growth inhibition treated for 10 to 15 days; assay type: functional; conditions: time 10-15 day
[12] = Antitumor activity against human COV644 cells assessed as cell growth inhibition treated for 10 to 15 days; assay type: functional; conditions: time 10-15 day
[13] = target: Histone-lysine N-methyltransferase NSD3 (Homo sapiens, UniProt Q9BZ95); assay: Inhibition of human NSD3 using Nucleosomes and [3H]SAM as substrate incubated for 30 mins to 1 hr by HotSpot kinase assay
TCC-SUP = assay: Antitumor activity against human TCC-SUP cells assessed as cell growth inhibition treated for 10 to 15 days; assay type: functional; conditions: time 10-15 day
CAMA-1 = assay: Antitumor activity against human CAMA-1 cells assessed as cell growth inhibition treated for 10 to 15 days; assay type: functional; conditions: time 10-15 day
HCC1187 = assay: Antitumor activity against human HCC1187 cells assessed as cell growth inhibition treated for 10 to 15 days; assay type: functional; conditions: time 10-15 day
Mus musculus = assay: In vivo inhibition of EZH1/2 in CB17/Icr-Prkdcscid/CrlCrlj mouse xenografted with human KARPAS-422 cells assessed as decrease in H3K27me3 level in tumor at 3.1 to 50 mg/kg, po BID for 14 days and measured 1 day after cessation of drug dosing; assay type: functional, organism-based; conditions: dose 3.1-50 mg/kg, time 14.0 day
[14] = Toxicity in Crl:CD Sprague-Dawley rat assessed as sodium level in blood at 100 mg/kg, po administered daily for 14 days (reference value: 141+/-0.82 mEq/L); assay type: organism-based; conditions: in vivo, 336 h, time 14 day
[15] = Toxicity in Crl:CD Sprague-Dawley rat assessed as abnormal clinical signs at 100 mg/kg, po administered daily for 14 days; assay type: organism-based; conditions: in vivo, 336 h, time 14 day
[16] = Toxicity in Crl:CD Sprague-Dawley rat assessed as total bilirubin level in blood at 100 mg/kg, po administered daily for 14 days (reference value: 0.003+/-0.005 mg/dL); assay type: organism-based; conditions: in vivo, 336 h, time 14 day
[17] = AUC (0 to 24 hrs) in BALB/c mouse at 6.3 mg/kg administered as single dose; assay type: ADME, organism-based; conditions: in vivo, route po
[18] = target: RAC-beta serine/threonine-protein kinase (Homo sapiens) (UniProt P31751); assay: Inhibition of N-terminal GST-tagged human AKT2 catalytic domain (120 to 481 residues) co-expressed with His-tagged PDK1 (1 to 556 residues) in baculovirus-infected Sf21 cells using Crosstide as substrate at 1 uM in presence of ATP by Mobility shift assay
[19] = Toxicity in Crl:CD Sprague-Dawley rat assessed as chloride level in blood at 100 mg/kg, po administered daily for 14 days (reference value: 104 +/-1.5 mEq/L); assay type: organism-based; conditions: in vivo, 336 h, time 14 day
[20] = target: Tyrosine-protein kinase Tec (Homo sapiens) (UniProt P42680); assay: Inhibition of N-terminal GST-tagged human TEC catalytic domain (359 to 631 residues) expressed in baculovirus-infected Sf21 cells using Srctide as substrate at 1 uM in presence of ATP by Mobility shift assay
Sequence of Tyrosine-protein kinase Tec (Homo sapiens) (P42680 whole entry, the tested form may be a part): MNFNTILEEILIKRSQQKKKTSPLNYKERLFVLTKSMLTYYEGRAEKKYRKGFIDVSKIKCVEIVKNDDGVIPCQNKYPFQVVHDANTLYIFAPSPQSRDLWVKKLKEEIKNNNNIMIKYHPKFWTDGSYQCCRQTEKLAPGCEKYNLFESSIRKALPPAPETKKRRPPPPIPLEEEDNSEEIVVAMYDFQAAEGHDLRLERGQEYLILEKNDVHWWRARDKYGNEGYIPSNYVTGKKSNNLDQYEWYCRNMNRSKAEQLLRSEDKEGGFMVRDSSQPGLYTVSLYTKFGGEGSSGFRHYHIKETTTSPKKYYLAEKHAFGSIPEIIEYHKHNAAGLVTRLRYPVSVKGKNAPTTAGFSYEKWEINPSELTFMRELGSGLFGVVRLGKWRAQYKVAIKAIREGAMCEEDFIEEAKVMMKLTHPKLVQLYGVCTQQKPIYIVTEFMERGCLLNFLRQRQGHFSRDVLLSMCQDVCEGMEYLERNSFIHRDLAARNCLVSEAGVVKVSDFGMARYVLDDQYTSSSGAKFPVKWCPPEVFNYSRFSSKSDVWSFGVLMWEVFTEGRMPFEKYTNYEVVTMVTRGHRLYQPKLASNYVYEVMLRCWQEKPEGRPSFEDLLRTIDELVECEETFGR

Sequence of Histone-lysine N-methyltransferase SETD1B (Q9UPS6 whole entry, the tested form may be a part): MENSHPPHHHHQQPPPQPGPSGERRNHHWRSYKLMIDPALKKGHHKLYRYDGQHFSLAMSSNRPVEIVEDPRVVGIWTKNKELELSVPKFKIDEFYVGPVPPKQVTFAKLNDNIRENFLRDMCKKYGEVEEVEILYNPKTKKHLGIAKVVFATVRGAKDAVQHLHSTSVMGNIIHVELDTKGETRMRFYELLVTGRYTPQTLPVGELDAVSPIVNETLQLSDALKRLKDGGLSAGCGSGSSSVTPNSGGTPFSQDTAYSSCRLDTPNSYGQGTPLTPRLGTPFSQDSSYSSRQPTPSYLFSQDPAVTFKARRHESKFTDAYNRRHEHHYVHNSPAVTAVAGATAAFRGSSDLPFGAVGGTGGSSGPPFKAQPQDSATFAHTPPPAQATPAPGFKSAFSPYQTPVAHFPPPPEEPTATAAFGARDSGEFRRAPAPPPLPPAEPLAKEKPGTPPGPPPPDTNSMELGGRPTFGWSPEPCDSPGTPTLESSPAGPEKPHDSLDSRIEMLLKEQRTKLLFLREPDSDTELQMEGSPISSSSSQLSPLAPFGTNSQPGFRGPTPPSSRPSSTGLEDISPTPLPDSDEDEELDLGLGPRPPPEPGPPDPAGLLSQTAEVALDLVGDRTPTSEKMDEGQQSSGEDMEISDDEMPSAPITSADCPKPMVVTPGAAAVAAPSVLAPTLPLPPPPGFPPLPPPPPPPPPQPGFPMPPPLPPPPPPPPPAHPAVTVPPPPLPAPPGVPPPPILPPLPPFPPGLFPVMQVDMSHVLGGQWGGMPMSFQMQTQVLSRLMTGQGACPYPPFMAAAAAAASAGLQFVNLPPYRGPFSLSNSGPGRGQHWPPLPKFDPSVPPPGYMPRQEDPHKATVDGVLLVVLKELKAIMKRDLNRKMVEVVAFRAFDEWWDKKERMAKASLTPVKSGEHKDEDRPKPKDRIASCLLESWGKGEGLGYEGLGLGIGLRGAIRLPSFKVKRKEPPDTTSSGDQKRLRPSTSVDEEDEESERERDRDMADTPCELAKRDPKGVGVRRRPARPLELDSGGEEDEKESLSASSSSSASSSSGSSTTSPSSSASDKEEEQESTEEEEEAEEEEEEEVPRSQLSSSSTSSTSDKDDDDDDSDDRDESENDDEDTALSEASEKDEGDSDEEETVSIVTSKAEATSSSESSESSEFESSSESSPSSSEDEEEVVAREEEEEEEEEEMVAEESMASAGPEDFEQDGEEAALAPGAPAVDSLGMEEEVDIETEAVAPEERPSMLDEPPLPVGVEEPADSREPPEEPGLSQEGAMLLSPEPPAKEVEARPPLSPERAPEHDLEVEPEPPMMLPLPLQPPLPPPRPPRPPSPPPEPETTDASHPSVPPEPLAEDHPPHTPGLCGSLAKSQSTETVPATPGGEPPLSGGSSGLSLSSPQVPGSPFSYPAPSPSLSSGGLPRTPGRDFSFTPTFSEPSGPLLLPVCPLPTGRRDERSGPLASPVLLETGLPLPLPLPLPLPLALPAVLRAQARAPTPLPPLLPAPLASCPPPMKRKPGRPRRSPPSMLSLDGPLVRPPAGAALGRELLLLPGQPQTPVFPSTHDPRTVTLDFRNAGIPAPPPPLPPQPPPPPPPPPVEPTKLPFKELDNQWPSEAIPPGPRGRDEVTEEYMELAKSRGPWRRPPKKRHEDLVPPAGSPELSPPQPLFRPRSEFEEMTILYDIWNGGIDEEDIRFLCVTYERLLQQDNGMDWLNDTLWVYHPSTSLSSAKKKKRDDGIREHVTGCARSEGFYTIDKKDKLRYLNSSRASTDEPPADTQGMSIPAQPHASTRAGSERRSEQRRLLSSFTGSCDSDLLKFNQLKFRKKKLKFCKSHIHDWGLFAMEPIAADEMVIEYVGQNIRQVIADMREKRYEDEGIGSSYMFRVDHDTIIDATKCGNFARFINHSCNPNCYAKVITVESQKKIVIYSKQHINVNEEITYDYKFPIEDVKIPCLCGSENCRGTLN
Sequence of Serine/threonine-protein kinase D2 (Homo sapiens) (Q9BZL6 whole entry, the tested form may be a part): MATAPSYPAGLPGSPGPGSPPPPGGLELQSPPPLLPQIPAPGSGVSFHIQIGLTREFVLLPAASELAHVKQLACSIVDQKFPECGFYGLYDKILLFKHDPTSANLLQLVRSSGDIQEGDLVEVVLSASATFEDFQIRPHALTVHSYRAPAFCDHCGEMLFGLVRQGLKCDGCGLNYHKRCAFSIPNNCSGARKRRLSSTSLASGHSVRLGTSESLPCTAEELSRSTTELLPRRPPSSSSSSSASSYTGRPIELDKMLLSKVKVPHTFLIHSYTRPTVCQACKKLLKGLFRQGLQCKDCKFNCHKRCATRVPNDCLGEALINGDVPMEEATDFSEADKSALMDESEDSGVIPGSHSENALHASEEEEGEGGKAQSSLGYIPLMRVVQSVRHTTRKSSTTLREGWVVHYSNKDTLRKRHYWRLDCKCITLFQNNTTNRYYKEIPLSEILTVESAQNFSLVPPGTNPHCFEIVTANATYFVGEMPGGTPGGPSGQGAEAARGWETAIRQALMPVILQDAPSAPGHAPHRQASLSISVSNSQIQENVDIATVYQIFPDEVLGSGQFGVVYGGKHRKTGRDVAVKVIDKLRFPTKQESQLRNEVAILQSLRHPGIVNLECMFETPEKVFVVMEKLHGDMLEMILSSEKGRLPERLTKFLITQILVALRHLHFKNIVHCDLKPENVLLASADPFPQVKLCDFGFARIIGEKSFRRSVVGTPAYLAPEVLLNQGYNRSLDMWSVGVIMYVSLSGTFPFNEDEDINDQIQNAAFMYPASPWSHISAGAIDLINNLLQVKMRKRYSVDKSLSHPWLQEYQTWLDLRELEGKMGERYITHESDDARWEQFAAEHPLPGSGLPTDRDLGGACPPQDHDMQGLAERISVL
Sequence of Histone-lysine N-methyltransferase EHMT1 (Q9H9B1 whole entry, the tested form may be a part): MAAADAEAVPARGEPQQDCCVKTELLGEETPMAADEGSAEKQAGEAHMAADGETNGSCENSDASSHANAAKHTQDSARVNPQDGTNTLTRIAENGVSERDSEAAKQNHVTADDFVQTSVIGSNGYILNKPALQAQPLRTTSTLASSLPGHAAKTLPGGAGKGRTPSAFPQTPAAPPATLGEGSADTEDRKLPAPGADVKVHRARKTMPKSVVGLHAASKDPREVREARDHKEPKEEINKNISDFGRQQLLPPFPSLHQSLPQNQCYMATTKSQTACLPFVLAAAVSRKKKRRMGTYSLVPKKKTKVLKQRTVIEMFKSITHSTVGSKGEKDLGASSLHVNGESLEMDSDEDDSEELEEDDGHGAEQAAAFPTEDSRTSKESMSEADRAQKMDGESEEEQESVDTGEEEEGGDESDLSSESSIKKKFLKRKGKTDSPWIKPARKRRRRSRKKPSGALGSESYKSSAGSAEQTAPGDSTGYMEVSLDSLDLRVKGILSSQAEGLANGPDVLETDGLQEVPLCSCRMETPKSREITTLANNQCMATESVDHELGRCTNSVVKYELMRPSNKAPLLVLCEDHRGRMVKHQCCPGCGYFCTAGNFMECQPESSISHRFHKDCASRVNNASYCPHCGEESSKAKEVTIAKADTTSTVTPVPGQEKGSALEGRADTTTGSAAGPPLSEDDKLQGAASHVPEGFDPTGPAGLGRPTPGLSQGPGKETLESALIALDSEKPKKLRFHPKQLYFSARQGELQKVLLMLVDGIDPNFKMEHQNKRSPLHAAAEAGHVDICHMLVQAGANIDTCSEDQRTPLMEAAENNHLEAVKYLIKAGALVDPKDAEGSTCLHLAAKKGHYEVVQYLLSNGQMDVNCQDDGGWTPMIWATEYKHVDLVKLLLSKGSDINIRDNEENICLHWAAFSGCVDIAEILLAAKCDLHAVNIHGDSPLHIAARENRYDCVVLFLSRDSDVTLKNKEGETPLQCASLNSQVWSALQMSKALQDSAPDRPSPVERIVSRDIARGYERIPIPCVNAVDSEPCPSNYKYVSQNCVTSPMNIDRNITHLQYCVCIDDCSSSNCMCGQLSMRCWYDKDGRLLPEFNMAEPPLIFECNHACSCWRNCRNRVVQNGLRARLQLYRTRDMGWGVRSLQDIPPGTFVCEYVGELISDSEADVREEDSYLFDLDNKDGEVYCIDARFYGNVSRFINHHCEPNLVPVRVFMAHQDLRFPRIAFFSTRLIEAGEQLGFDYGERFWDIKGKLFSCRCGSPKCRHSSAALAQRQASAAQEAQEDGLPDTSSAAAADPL

## Cc1cc(C)c(CNC(=O)c2cc(Cl)c3c(c2C)O[C@@](C)([C@H]2CC[C@H](N(C)C)CC2)O3)c(=O)[nH]1 [VALEMETOSTAT]
[1]
  GI50: 0.317 µM
[2]
  GI50: 0.026 µM
[3]
  GI50: > 1 µM
[4]
  GI50: 0.444 µM
NCI-H661
  GI50: 0.359 µM
[5]
  inhibition: -4.7%
NCI-H522
  GI50: 0.46 µM
KARPAS-422
  GI50: 0.00156 µM
LOUCY
  GI50: > 1 µM
DU-145
  GI50: > 1 µM
Granta-519
  GI50: > 1 µM
ARH-77
  GI50: > 1 µM
[6]
  GI50: 0.142 µM
NCI-H520
  GI50: > 1 µM
OAW-42
  GI50: > 1 µM
HCT-116
  GI50: > 1 µM
[7]
  pIC50: 4.00
MLMA
  GI50: 0.273 µM
[8]
  inhibition: -9%
MV4-11
  GI50: 0.00319 µM
ZR-75-30
  GI50: > 1 µM
[9]
  pIC50: 4.00
[10]
  pIC50: 4.00
Daudi
  GI50: > 1 µM
[11]
  GI50: > 1 µM
HPAC
  GI50: > 1 µM
Toledo
  GI50: > 1 µM
[12]
  GI50: > 1 µM
[13]
  pIC50: 4.00
TCC-SUP
  GI50: > 1 µM
CAMA-1
  GI50: 0.00656 µM
HCC1187
  GI50: > 1 µM

## Cc1cc(C)c(CNC(=O)c2cc(Br)c3c(c2C)O[C@@](C)([C@H]2CC[C@H](N(C)C)CC2)O3)c(=O)[nH]1
Mus musculus
  inhibition: Active
[14]
  Activity: 142 mEq/L
[15]
  Activity: Non-Toxic
[16]
  Activity: 0.028 mg/dL
[17]
  AUC(0-t): 1.6 µM·h
[18]
  inhibition: -9.5%
[19]
  Activity: 105 mEq/L
[20]
  inhibition: -10%

Source: ChEMBL document CHEMBL5647694, “Novel orally bioavailable EZH1/2 dual inhibitors with greater antitumor efficacy than an EZH2 selective inhibitor” (Cancer Sci, 2017)
